# Data from patent US7807162B2, “Single domain VHH antibodies against von Willebrand factor” (Ablynx N.V., priority 2005, dated 2010).
# What was measured:
# [1] = tested on: cyclic flow reductions (CFRs) in injured, stenosed femoral artery; test: Use of vWF as an antidote for ALX-0081 in the baboon Folts model; format: in vivo, baboon (Papio ursinus)
# Text: The experimental procedure followed the original Folts model with the modifications as described in the previous example 18.
# Healthy male baboons (Papio ursinus) were used in this study. The animals were 9-12 kg of weight and were disease-free for at least 2 weeks prior to use. The baboons were fed with dry standard food only.
# [2] = tested on: cyclic flow reductions (CFRs) in injured, stenosed femoral artery; test: Folts model in baboons: Aspegic-Heparin-Plavix combination with ALX-0081 on top; format: in vivo, baboon (Papio ursinus)
# Procedure: Extra Heparin was administered at different time points to sustain a certain level (aPTT should be at least doubled versus control). […] The anti-thrombotic effect was quantified by comparing the length of CFRs before and after drug administration. When full inhibition of CFRs was observed, a new injury was applied. Epinephrin was injected and continued till the end of the experiment. […] (1), 3, 10 or 30 μg/kg. […] The specifications of the baboons that were used in this study are represented in table 49.
substance,measurement,setting,value
"ALX-0081: ALX-0081 (SEQ ID NO:98), Nanobody; humanised bivalent nanobody with the 3a linker",Length of CFRs,"[1]; 30 μg/kg + 45 μg/kg/hour ALX-0081, baboons 1-3",>1800 s
same,dose at which full inhibition of CFRs was obtained,"[1]; all three baboons, bolus followed by 45 μg/kg/hour",0.03 mg/kg
same,CFRs upon a new injury,[1]; at 30 μg/kg+45 μg/kg/hour ALX-0081,the CFRs did not return
same,CFRs upon a new injury,[2]; at the effective dose of ALX-0081 on top of the combination,the CFRs did not return
same,dose at which full inhibition of the CFRs was obtained,"[2]; on top of Aspegic, Heparin, Plavix, continued Epinephrin infusion, all seven baboons",0.03 mg/kg
same,Length of CFRs,"[2]; on top of Aspegic/Heparin/Plavix combination: Epinephrin + effective dose ALX-0081, individual baboons 4-10",>1800 s
